The text below walks through data of publication PMC9151520 (Archives of Toxicology, 2022).

Several values for one entry are separate records, joined by “and”; a condition that tells them apart may be missing. Equal entries are not always repeated. Where two headings read alike, the source gives them in different places.

Data set [1] concerns p53 signaling (p53RE-bla HCT-116 cells). The data set is described as follows: cells. Format: cell-based.
Data set [2] has the same test system.
Data set [3] has the same test system. This is another data set of the same source.
The mark [4] stands for this setting: read-out: p53 activation EC50, cherry pick confirmation.
[5] abbreviates: read-out: p53 activation EC50, primary screening.
[6] abbreviates: read-out: EC50, p53 activation, primary screening.

Regarding `CC(C)c1cccc(C(C)C)c1N1C(=O)c2ccc(O)cc2C1=O`, in data set [1], the “p53 activation efficacy, cherry pick confirmation” value was determined as 44.7367 and the “p53 activation efficacy, primary screening” value was determined as 87.6647. Also, the EC50 – broadly, the concentration that produces a half-maximal response – in data set [1] (setting [4]) stood at 3.1 µM. The EC50 in data set [1] (setting [5]) worked out at 3.93 µM. For the same molecule, in data set [2], the “p53 activation EC50, cherry pick confirmation” value is “inactive”; the “p53 activation EC50, primary screening” value was “inactive”; the “p53 activation efficacy, cherry pick confirmation” value was “inactive”; the “p53 activation efficacy, primary screening” value was “inactive”. Further, in data set [3], the “p53 activation EC50, cherry pick confirmation” value was “inactive”; the “p53 activation EC50, primary screening” value was “inactive”; the “p53 activation efficacy, cherry pick confirmation” value is “inactive”; the “p53 activation efficacy, primary screening” value was “inactive”. In the data set with p53RE-bla HCT-116 cells, the “Viability EC50, cherry pick confirmation” value was “inactive”; the “Viability EC50, primary screening” value was “inactive”; the “Viability efficacy, cherry pick confirmation” value is “inactive”; the “Viability efficacy, primary screening” value was “inactive”.

On to `Cl.Nc1ccn([C@@H]2O[C@H](CO)[C@@H](O)C2(F)F)c(=O)n1`, for which, in data set [1], the “p53 activation efficacy, cherry pick confirmation” value came to 111.507 and the “p53 activation efficacy, primary screening” value worked out at 94.321. Further, in data set [1] (setting [4]), the half-maximal effective concentration (EC50) is 0.205 µM. The EC50 in data set [1] (setting [5]) was found to be 0.174 µM. Besides, in data set [2], the “p53 activation EC50, cherry pick confirmation” value is “inactive”; the “p53 activation EC50, primary screening” value was “inactive”; the “p53 activation efficacy, cherry pick confirmation” value is “inactive”; the “p53 activation efficacy, primary screening” value is “inactive”. Further, in data set [3], the “p53 activation EC50, cherry pick confirmation” value was “inactive”; the “p53 activation EC50, primary screening” value is “inactive”; the “p53 activation efficacy, cherry pick confirmation” value is “inactive”; the “p53 activation efficacy, primary screening” value is “inactive”. For the same molecule, in the data set with p53RE-bla HCT-116 cells, the “Viability EC50, cherry pick confirmation” value was “inactive”; the “Viability EC50, primary screening” value is “inactive”; the “Viability efficacy, cherry pick confirmation” value was “inactive”; the “Viability efficacy, primary screening” value is “inactive”.

`COC(=O)c1nc(Cl)c(Cl)nc1N`: in data set [1], the “Efficacy, p53 activation, cherry pick confirmation” value was determined as 118.088 and the “Efficacy, p53 activation, primary screening” value is 51.0133. The EC50 in data set [1] (read-out: EC50, p53 activation, cherry pick confirmation) worked out at 24 µM. Besides, the EC50 in data set [1] (setting [6]) is 21.5 µM. Also, in data set [2], the “EC50, p53 activation, cherry pick confirmation” value was “inactive” and the “Efficacy, p53 activation, cherry pick confirmation” value was “inactive”. In data set [2] (setting [6]), the EC50 worked out at 22.4 µM. In data set [3], the “EC50, p53 activation, cherry pick confirmation” value was “inactive”; the “EC50, p53 activation, primary screening” value was “inactive”; the “Efficacy, p53 activation, cherry pick confirmation” value is “inactive”. In addition, in the data set on p53RE-bla HCT-116 cells, the “EC50, viability, cherry pick confirmation” value was “inactive”; the “EC50, viability, primary screening” value was “inactive”; the “Efficacy, viability, cherry pick confirmation” value is “inactive”; the “Efficacy, viability, primary screening” value is “inactive”.

Turning to `CC(=O)Nc1ccn(C2COC(COC(=O)c3ccccc3)O2)c(=O)n1` (stereo not drawn), in data set [1], the “p53 activation efficacy, cherry pick confirmation” value turned out to be 43.9867 and the “p53 activation efficacy, primary screening” value was 52.8473. In addition, the EC50 in data set [1] (setting [4]) is 9.43 µM. Besides, the EC50 in data set [1] (setting [5]) is 2.5 µM. In data set [2], the “p53 activation EC50, cherry pick confirmation” value was “inactive”; the “p53 activation EC50, primary screening” value was “inactive”; the “p53 activation efficacy, cherry pick confirmation” value was “inactive”; the “p53 activation efficacy, primary screening” value is “inactive”. In data set [3], the “p53 activation EC50, cherry pick confirmation” value was “inactive”; the “p53 activation EC50, primary screening” value is “inactive”; the “p53 activation efficacy, cherry pick confirmation” value is “inactive”; the “p53 activation efficacy, primary screening” value is “inactive”. Also, in the data set on p53RE-bla HCT-116 cells, the “Viability EC50, cherry pick confirmation” value is “inactive”; the “Viability EC50, primary screening” value is “inactive”; the “Viability efficacy, cherry pick confirmation” value is “inactive”; the “Viability efficacy, primary screening” value is “inactive”.

As to `N=C1NC(=N)c2cc3ccccc3cc21` [1,3-Diiminobenz(f)isoindoline], in data set [1], the p53 activation efficacy was 115.412 and 121.93. Further, the EC50 in data set [1] (read-out: p53 activation EC50) is 23.7 µM and 25.2 µM. Also, the “p53 activation EC50” value in data set [2] and in data set [3] was “inactive” each time. In addition, the “Viability EC50” value in the data set with p53RE-bla HCT-116 cells was “inactive”.

As to `Cc1ccc([N+](=O)[O-])c(C)c1` [1,3-Dimethyl-4-nitrobenzene], in data set [1], the “p53 activation EC50, cherry pick confirmation” value was “inactive”; the “p53 activation EC50, primary screening” value was “inactive”; the “p53 activation efficacy, cherry pick confirmation” value is “inactive”; the “p53 activation efficacy, primary screening” value was “inactive”. Further, in data set [2], the “p53 activation EC50, cherry pick confirmation” value was “inactive” and the “p53 activation efficacy, cherry pick confirmation” value was “inactive”. In data set [3], the “p53 activation EC50, cherry pick confirmation” value was “inactive” and the “p53 activation efficacy, cherry pick confirmation” value was “inactive”. Further, in the data set with p53RE-bla HCT-116 cells, the “Viability EC50, cherry pick confirmation” value was “inactive”; the “Viability EC50, primary screening” value was “inactive”; the “Viability efficacy, cherry pick confirmation” value was “inactive”; the “Viability efficacy, primary screening” value was “inactive”.

For `Nc1cc(Cl)c(-c2cc(Cl)c(N)cc2Cl)cc1Cl` [2,2',5,5'-Tetrachlorobenzidine], the “p53 activation efficacy, cherry pick confirmation” value was 92.1083 in data set [1], “inactive” in data set [2] and “inactive” in data set [3]. For the same molecule, the “p53 activation efficacy, primary screening” value in data set [1] is 80.5693; in data set [2], “inactive”; in data set [3], “inactive”. The EC50 in data set [1] (setting [4]) was 36.2 µM; in data set [1] (setting [5]) it was 17.8 µM; in the data set with p53RE-bla HCT-116 cells (read-out: Viability EC50, cherry pick confirmation), 49.4 µM and 51.3 µM; with p53RE-bla HCT-116 cells (read-out: Viability EC50, primary screening), 49.5 µM (2×) and 37.5 µM. In addition, the “p53 activation EC50, cherry pick confirmation” value in data set [2] and in data set [3] was “inactive” in each case. Besides, the “p53 activation EC50, primary screening” value in data set [2] and in data set [3] was “inactive” throughout. Besides, the “Viability EC50, cherry pick confirmation” value in the data set on p53RE-bla HCT-116 cells is “inactive”.

As to `O=C(c1ccc(O)cc1)c1ccc(O)cc1O` [2,4,4'-Trihydroxybenzophenone], in data set [1], the “EC50, p53 activation, cherry pick confirmation” value is “inactive”; the “Efficacy, p53 activation, cherry pick confirmation” value is “inactive”; the “Efficacy, p53 activation, primary screening” value was found to be 51.9983. For the same molecule, the EC50 in data set [1] (setting [6]) is 46.5 µM. For the same molecule, in data set [2], the “EC50, p53 activation, cherry pick confirmation” value is “inactive”; the “EC50, p53 activation, primary screening” value was “inactive”; the “Efficacy, p53 activation, cherry pick confirmation” value was “inactive”; the “Efficacy, p53 activation, primary screening” value is “inactive”. Further, in data set [3], the “EC50, p53 activation, cherry pick confirmation” value was “inactive”; the “EC50, p53 activation, primary screening” value is “inactive”; the “Efficacy, p53 activation, cherry pick confirmation” value is “inactive”; the “Efficacy, p53 activation, primary screening” value was “inactive”. Besides, in the data set with p53RE-bla HCT-116 cells, the “EC50, viability, cherry pick confirmation” value is “inactive”; the “EC50, viability, primary screening” value is “inactive”; the “Efficacy, viability, cherry pick confirmation” value is “inactive”; the “Efficacy, viability, primary screening” value is “inactive”.

`Cc1cccc2sc3nncn3c12` [2,7,8,9-Tricyclazole]: in data set [1], the “p53 activation EC50” value is “inactive” and the p53 activation efficacy result was “inactive”. Also, the “p53 activation EC50” value in data set [2] was “inactive”. The “p53 activation EC50” value in data set [3] was “inactive”. In the data set on p53RE-bla HCT-116 cells, the “Viability EC50” value was “inactive” and the Viability efficacy result is “inactive”.

With `Nc1cc(Cl)ccc1O` [2-Amino-4-chlorophenol], in data set [1], the “EC50, p53 activation, cherry pick confirmation” value was “inactive” and the “Efficacy, p53 activation, cherry pick confirmation” value is “inactive”. Also, in data set [1] (Homo sapiens, HCT-116, read-out: EC50, p53 activation, primary screening), the EC50 was 38.2 µM. Further, the Emax in data set [1] (Homo sapiens, HCT-116, read-out: Efficacy, p53 activation, primary screening) is 53.8%. Besides, in data set [2], the “EC50, p53 activation, cherry pick confirmation” value was “inactive”; the “EC50, p53 activation, primary screening” value is “inactive”; the “Efficacy, p53 activation, cherry pick confirmation” value was “inactive”; the “Efficacy, p53 activation, primary screening” value is “inactive”. For the same molecule, in data set [3], the “EC50, p53 activation, cherry pick confirmation” value was “inactive”; the “EC50, p53 activation, primary screening” value is “inactive”; the “Efficacy, p53 activation, cherry pick confirmation” value was “inactive”; the “Efficacy, p53 activation, primary screening” value was “inactive”. In addition, in the data set with p53RE-bla HCT-116 cells, the “EC50, viability, cherry pick confirmation” value is “inactive”; the “EC50, viability, primary screening” value is “inactive”; the “Efficacy, viability, cherry pick confirmation” value is “inactive”; the “Efficacy, viability, primary screening” value is “inactive”.

On to `Clc1ccc2cc3ccccc3cc2c1` [2-Chloroanthracene], for which, in data set [1], the “p53 activation Efficacy, No MS” value was 70.691% and 61.8737%. The half-maximal effective concentration (EC50) in data set [1] (read-out: p53 activation EC50, No MS) came to 35.6 µM. The “p53 activation EC50, RLM” value in data set [2] was “inactive”. Also, the concentration giving a half-maximal response (EC50) in data set [2] (read-out: p53 activation EC50, RLM) amounted to 50.1 µM. Moreover, the “p53 activation EC50, HLM” value in data set [3] was “inactive”. Further, the EC50 in data set [3] (read-out: p53 activation EC50, HLM) was 23.2 µM. Moreover, in the data set on p53RE-bla HCT-116 cells, the “Viability EC50, HLM” value is “inactive”; the “Viability EC50, No MS” value was “inactive”; the “Viability EC50, RLM” value is “inactive”; the “Viability Efficacy, HLM” value is “inactive”. Moreover, in the data set on p53RE-bla HCT-116 cells, the “Viability Efficacy, No MS” value was “inactive” and the “Viability Efficacy, RLM” value was “inactive”.
